Reference: a melting point compilation (Tetko et al.)

melting point | SMILES
124 °C | CC(=O)CCc1oc2ccc([N+](=O)[O-])cc2c1-c1ccc(C)o1
284 to 287 °C | COc1cccc2c(O)c3ccccc3nc12
148 °C | CC12CCCC1C1CCC3CC(Cc4ccccc4)CCC3(C)C1CC2 (stereo not given)
69 °C | CC1=CC(O)c2ccccc21 (stereo not given)
62 °C | OC1CCN(Cc2ccccc2)CC1
-9 °C | C=C(C)C=CC(=C)C
255 °C | O=C1OCCN1N=Cc1ccc([N+](=O)[O-])o1
32 °C | Cc1cc(C(C)(C)C)cc(C(C)(C)C)c1
127 to 129 °C | NC(Cc1cccc2ccccc12)=NO
40 °C | O=C(Cl)c1cc(Cl)cc(Cl)c1
75 to 76 °C | CNC(=O)c1ccccc1N
49 to 52 °C | O=Cc1ncccc1F
331 to 334 °C | O=c1c(O)c(O)c(=O)c1=O
-6 °C | CC(C)(C)OC(=O)CC(=O)OC(C)(C)C
78 °C | Nc1cccnc1Cl
167 to 169 °C | NC(=O)c1ccc2c(c1)OCO2
106 to 107 °C | CC(C)(C)c1csc(-c2ccc(C=O)cc2)n1
235 °C | C#CC1(O)CCC2C3CCC4=Cc5oncc5CC4(C)C3CCC21C (stereo not given)
90 °C | CCOc1c(N2CCOCC2)cnn(C)c1=O
119 °C | Cc1ccc2oc3c(c2c1)-c1oc(C)cc1C(C)(c1ccccc1)CC3 (stereo not given)
71 °C | COc1ccc(C(=O)Cl)cc1OC
322 °C | CC(=O)Nc1ccc(C=Cc2ccc(NC(C)=O)cc2)cc1

melting point | SMILES
265 to 267 °C | CC(CCC(=O)O)C1CCC2C(C(=O)O)C(C3(C)CCCCC3C(=O)O)CCC12C (stereo not given)
64 °C | Cc1cc(Br)ccc1C#N
72 °C | ON=Cc1cccc(Br)c1
175 to 179 °C | COC(=O)c1cc2cc(S(C)(=O)=O)ccc2[nH]1
52 to 54 °C | COC(=O)c1ccc(C(=O)OC)c(Br)c1
97 °C | O=C(c1ccc(F)cc1)c1cccs1
109 °C | Cc1ccccc1NN=C1C(=O)CC(C)(C)CC1=O
95 to 98 °C | O=C1CCCN1c1ccc(Cl)cc1
63 °C | OC(c1ccccc1)c1cccc(C(F)(F)F)c1 (stereo not given)
184 to 187 °C | O=C(O)C1CC(c2ccccc2)CCC1C(=O)c1ccccc1 (stereo not given)
161 °C | Clc1ccc(-c2nnn[nH]2)cc1Cl
180 °C | O=C1OC(O)c2cc(Cl)c(Cl)cc21 (stereo not given)
80 °C | COc1ccc(C(C)=NO)cc1
182 to 188 °C | COc1cc(O)c2c(=O)c(O[C@@H]3O[C@H](CO)[C@H](O)[C@H](O)[C@@H]3O[C@@H]3O[C@H](C)[C@H](O)[C@H](O)[C@@H]3O)c(-c3cccc(O)c3)oc2c1
115 °C | CCCCOc1ccc(-c2nn(CCC#N)c(=S)[nH]2)cc1
143 °C | O=C(O)c1ccc(N2C(=O)C3ON=C(C(=O)c4ccc(Cl)cc4)C3C2=O)cc1 (stereo not given)
172 to 173 °C | CC(=O)OC1C2=C(C(=O)C(OC(C)=O)C3(CC3C)C2=O)C2(C)CCCC(C)(C)C2C1O (stereo not given)
172 °C | CCc1c(C)ccc2c1CCC1C2CCC2CC(O)CCC21C (stereo not given)
161 °C | Nc1cc(N)c(/C=C/c2ccccc2)c(N)c1C=Cc1ccccc1
168 to 170 °C | ON=C1CCCCCN1
112 to 115 °C | O=C(CBr)c1ccc(N2CCOCC2)cc1
123 to 125 °C | C[C@@H](NC(=O)c1ccccc1)c1ccccc1

SMILES | melting point
ClCOCCl | -41.5 °C
NC(c1ccc(F)cc1)C(N)c1ccc(F)cc1 (stereo not given) | 100 to 104 °C
CCCCc1ccc2ccccc2c1 | -5 °C
CC(C)c1ccc(NC(=O)N(C)C)cc1 | 158 °C
O=[N+]([O-])c1cc([N+](=O)[O-])c(Cl)cc1Cl | 101 °C
CNP(=O)(NC)Oc1ccccc1 | 102 °C
